Test results published in patent US12539289B2, “Phorbol ester compositions and methods of use for treating or reducing the duration of cytopenia” (BIOSUCCESS BIOTECH CO., LTD., priority 2014, dated 2026).
“And” between values parts separate entries of the source, which are not always exact repeats. Equal values may be shown once.

Tests used:
[1] = tested on: bone marrow stromal cells (BMSCs) from patients of AML in the bone marrow suppression phase; experiment: BMSC proliferation or inhibition, CCK8 method, AML patients; format: cell-based, human
Method: (§1) To explore the effect of TPA alone or combined rhG-CSF on bone marrow hematopoietic cells proliferation and colony formation ability which from patients of acute myeloid leukemia (AML) in the period of bone marrow suppression in vitro and to observe the effect of TPA on bone marrow stromal cells(BMSCs) proliferation or inhibition from patients of AML in the period of myelosuppression and the healthy persons.
(§2) • 1) Human bone marrow cells from the same AML patient after chemotherapy were cultured by methyl cellulose semi-solid culture medium. Groups: Blank, TPA (10 ng/ml), G-CSF (50 ng/ml), TPA (10 ng/ml)+GCSF (50 ng/ml). The experiments were repeated for 4 times. • 2) The stroma cells of bone marrow from the healthy human and the AML patient after chemotherapy were cultured by methyl cellulose semi-solid culture medium. Different TPA concentrations were added. Groups: Blank, TPA (0.1 ng/ml), TPA (1.0 ng/ml), TPA (5 ng/ml), TPA (10 ng/ml), TPA (20 ng/ml), TPA (30 ng/ml). • 3) Cultivation of BMSCs from healthy persons and patients of AML in the bone marrow suppression phase in vitro, added to TPA of different concentrations, 0.1 ng/ml, 1.0 ng/ml, 5 ng/ml, 10 ng/ml, 20 ng/ml, 30 ng/ml, and set up a control to detect cell proliferation or inhibition with CCK8 method. Results and Conclusion: • 1. […]

[2] = tested on: bone marrow stromal cells (BMSCs) from healthy persons; experiment: BMSC proliferation or inhibition, CCK8 method, healthy persons; format: cell-based, human; settings: BMSCs of the healthy human and the AML patient after chemotherapy
Method: as §1, §2

Drug Induced Cytopenia = experiment: Drug induced cytopenia treated by TPA: blood cell counts after DNR + Ara-C; format: in vivo, mice; settings: for PLT / RBC / WBC: n = 10
Method: Ninety (90) adult mice were randomly assigned to 9 groups (10 mice per group). No drug was administered in Control group. Model group was given DNR (6 mg/kg)+Ara-C (150 mg/kg) on Day 0. The rest of the 7 groups were given DNR (6 mg/kg)+Ara-C (150 mg/kg) on Day 0, and each group on Day 7, Day 8, and Day 9 was administered with one of the following drugs: G-CSF (10 μg/kg), EPO (500 IU/kg), TPA (12.5 μg/kg), TPA (25 μg/kg), TPA (50 μg/kg), TPA (12.5 μg/kg)+GCSF (10 μg/kg), or TPA (12.5 μg/kg)+EPO (500 IU/kg).

[3] = tested on: Human bone marrow cells from the same AML patient after chemotherapy; experiment: Colony formation of bone marrow hematopoietic cells in methyl cellulose semi-solid culture medium; format: cell-based
Method: as §1
• 1) Human bone marrow cells from the same AML patient after chemotherapy were cultured by methyl cellulose semi-solid culture medium. Groups: Blank, TPA (10 ng/ml), G-CSF (50 ng/ml), TPA (10 ng/ml)+GCSF (50 ng/ml). The experiments were repeated for 4 times. • 2) The stroma cells of bone marrow from the healthy human and the AML patient after chemotherapy were cultured by methyl cellulose semi-solid culture medium. Different TPA concentrations were added. Groups: Blank, TPA (0.1 ng/ml), TPA (1.0 ng/ml), TPA (5 ng/ml), TPA (10 ng/ml), TPA (20 ng/ml), TPA (30 ng/ml). • 3) Cultivation of BMSCs from healthy persons and patients of AML in the bone marrow suppression phase in vitro, added to TPA of different concentrations, 0.1 ng/ml, 1.0 ng/ml, 5 ng/ml, 10 ng/ml, 20 ng/ml, 30 ng/ml, and set up a control to detect cell proliferation or inhibition with CCK8 method. Results and Conclusion: • 1. Compared the clones of four groups in incomplete medium, in the control group a small cell clusters can be seen for 24-72 hours, but the cells were dead as time prolong. Cultivated 14 days, control group have no clones formation, CFU-GM are dominated for G-CSF group, TPA alone and combination with G-CSF group have myeloid colony formation, while BFU-E and CFU-GEMM. […] Compared the clones of different concentration of TPA stimulation in incomplete medium, the total clones of 5 ng/ml, 10 ng/ml, 20 ng/ml group are higher than other groups, including 10 ng/ml in the highest, there are statistical significance (both P<0.05). While decreasing or increasing TPA concentration can not improve the colony number. The better concentration of TPA to stimulate the colony formation is 5˜20 ng/ml. […] Compared the clones of different concentration of TPA and G-CSF (50 ng/ml) stimulation in incomplete medium. Combination with G-CSF the better concentration of TPA is 1˜10 ng/ml (both P<0.05). Combination with G-CSF the best concentration of TPA is 5 ng/ml and 1 ng/ml. for CFU-GM and CFU-GEMM. The main clone types are myeloid colones, CFU-GM, also have CFU-GEMM and fewer BFU-E. • 4. […] While TPA group and G-CSF group the number of clones of TPA group and G-CSF group have no statistical significance (P=0.577). • 5. […] Meanwhile, TPA promote bone marroe stromal cells from the AML patients proliferation of concentration 5˜30 ng/ml (cell number 2×10^5/ml). 5 ng/ml of TPA is the best concentration of promoting proliferation, and G-CSF had no effect on the growth of BMSCs from healthy persons or AML patients.

[4] = 8 days after DNR + Ara-c, 1 day after 1st dose, G-CSF 10, EPO 500, TPA 12.5, TPA + GCSF 12.5 + 10, TPA + EPO 12.5 + 500 (μg·kg^−1)
[5] = 8 days after DNR + Ara-c, 1 day after 1st dose, TPA 25 μg·kg^−1
[6] = 8 days after DNR + Ara-c, 1 day after 1st dose, TPA 50 μg·kg^−1
[7] = 9 days after DNR + Ara-c, 1 day after 2nd dose, G-CSF 10, EPO 500, TPA 12.5, TPA + GCSF 12.5 + 10, TPA + EPO 12.5 + 500 (μg·kg^−1)
[8] = 9 days after DNR + Ara-c, 1 day after 2nd dose, TPA 25 μg·kg^−1
[9] = 9 days after DNR + Ara-c, 1 day after 2nd dose, TPA 50 μg·kg^−1
[10] = 10 days after DNR + Ara-c, 1 day after 3rd dose, G-CSF 10, EPO 500, TPA 12.5, TPA + GCSF 12.5 + 10, TPA + EPO 12.5 + 500 (μg·kg^1)
[11] = 10 days after DNR + Ara-c, 1 day after 3rd dose, TPA 25 μg·kg^1
[12] = 10 days after DNR + Ara-c, 1 day after 3rd dose, TPA 50 μg·kg^1

SMILES: CCCCCCCCCCCCCC(=O)O[C@@H]1[C@@H](C)[C@@]2(O)[C@@H](C=C(CO)C[C@]3(O)C(=O)C(C)=C[C@@H]23)[C@@H]2C(C)(C)[C@]12OC(C)=O [TPA, 12-O-tetradecanoylphorbol-13-acetate]
- best concentration of promoting proliferation of BMSCs [1]: 5 ng/mL
- optimal concentrations for growth of stroma cells of bone marrow (BMSCs) [2]: 5 ng/mL and 10 ng/mL
- PLT (Drug Induced Cytopenia; [4]): 395 ± 30.41^(1)(1)(2)(2) ×10^9/L
- RBC (Drug Induced Cytopenia; [4]): 6.08 ± 0.49^(1)(1)(2)(3)(3)(4) ×10^12/L
- WBC (Drug Induced Cytopenia; [4]): 6.4 ± 0.62^(2)(2) ×10^9/L
- PLT (Drug Induced Cytopenia; [5]): 391 ± 20.42^(1)(1)(2)(2) ×10^9/L
- RBC (Drug Induced Cytopenia; [5]): 7.09 ± 0.23^(1)(1)(2)(2)(3)(3)(5) ×10^12/L
- WBC (Drug Induced Cytopenia; [5]): 6.4 ± 0.35^(2)(2) ×10^9/L
- PLT (Drug Induced Cytopenia; [6]): 413 ± 9.64^(1)(1)(2)(2) ×10^9/L
- RBC (Drug Induced Cytopenia; [6]): 7.10 ± 0.24^(1)(1)(2)(2)(3)(3)(5) ×10^12/L
- WBC (Drug Induced Cytopenia; [6]): 6.5 ± 0.75^(2)(2) ×10^9/L
- PLT (Drug Induced Cytopenia; [7]): 965 ± 76.23^(1)(1)(2)(2) ×10^9/L
- RBC (Drug Induced Cytopenia; [7]): 7.47 ± 0.55^(1)(1)(2)(2)(3)(3) ×10^12/L
- WBC (Drug Induced Cytopenia; [7]): 6.84 ± 0.44^(2) ×10^9/L
- PLT (Drug Induced Cytopenia; [8]): 951 ± 70.29^(1)(1)(2)(2) ×10^9/L
- RBC (Drug Induced Cytopenia; [8]): 7.34 ± 0.87^(1)(1)(2)(2)(3)(3) ×10^12/L
- WBC (Drug Induced Cytopenia; [8]): 6.72 ± 0.50^(2) ×10^9/L
- PLT (Drug Induced Cytopenia; [9]): 999 ± 45.67^(1)(1)(2)(2) ×10^9/L
- RBC (Drug Induced Cytopenia; [9]): 7.30 ± 0.49^(1)(1)(2)(2)(3)(3) ×10^12/L
- WBC (Drug Induced Cytopenia; [9]): 6.86 ± 0.39^(2) ×10^9/L
- PLT (Drug Induced Cytopenia; [10]): 1447 ± 78.09^(2)(2) ×10^9/L
- RBC (Drug Induced Cytopenia; [10]): 7.59 ± 0.67^(1)(1)(2)(2)(3)(3) ×10^12/L
- WBC (Drug Induced Cytopenia; [10]): 9.51 ± 0.85^(1)(1)(2)(2)(4)(4) ×10^9/L
- PLT (Drug Induced Cytopenia; [11]): 1465 ± 72.81^(2)(2) ×10^9/L
- RBC (Drug Induced Cytopenia; [11]): 8.26 ± 0.63^(1)(1)(2)(2)(3)(3)(5) ×10^12/L
- WBC (Drug Induced Cytopenia; [11]): 9.69 ± 0.85^(1)(1)(2)(2)(4)(4) ×10^9/L
- RBC (Drug Induced Cytopenia; [12]): 8.18 ± 0.55^(1)(1)(2)(2)(3)(3)(5) ×10^12/L
- WBC (Drug Induced Cytopenia; [12]): 9.90 ± 0.64^(1)(1)(2)(2)(4)(4) ×10^9/L
- PLT (Drug Induced Cytopenia; 10 days after DNR + Ara-c, 1 day after 3rd dose, TPA 50 μg·kg^−1): 1463 ± 80.33^(2)(2) ×10^9/L
- production of WBC, RBC, and platelet (Drug Induced Cytopenia; conclusion of Example 6): promoted the production of WBC, RBC, and platelet
- best concentration for hematopoietic cell clone formation (highest total clones) ([3]; TPA alone, incomplete medium): 10 ng/mL
- colony types whose formation is promoted (CFU-GM, CFU-GEMM, BFU-E) ([3]; bone marrow of AML patients in the period of bone marrow suppression, in vitro): promoted the formation of CFU-GM, CFU-GEMM, and BFU-E
- total number of clones ([3]; incomplete medium, cultivated 14 days, TPA 10 ng/ml, G-CSF 50 ng/ml): higher than G-CSF group
